# Laboratory results as given in US20030045564A1, “Saururus chinensis extract for prevention and treatment of neurodegenerative disease” (priority 2000, published 2003).
# Columns and labels:
# [1] = test system: NO content released from glutamate-insulted rat cortical cells; assay: Measurement of nitric oxide (nitrite in culture broth, Griess reagent); assay type: cell-based; conditions: for Nitrite / Nitrite post-treatment: post-treatment; for Nitrite: control 75.5, glutamate-treated 145.7; for Nitrite post-treatment / Nitrite pre-treatment: control 70.5, glutamate-treated 165.9
# Description: The content of nitrite isolated into culture broth from first cultured cortical cells was assayed by using Griess reagent by Dawson's method(Dawson V L, Brahbhatt H P, Mong J A and Dawson T M (1994) Expression of inducible nitric oxide synthase causes delayed neurotoxicity in primary neuronal-glial cortical cultures. Neuropharmacology 33: 1425-1430).
# GSH-px = assay: Effect on activity of antioxidant enzyme GSH-px; assay type: cell-based, rat; conditions: data not shown
# [2] = test system: glutamate-insulted rat cortical cells; assay: Neuroprotection against glutamate-induced neurotoxicity, cell viability by MTT assay in primary cultured cortical cells; assay type: cell-based; parameters: neuroprotective activity (in words): dose or concentration left out as unconfirmed
# Description: Primary cultures of mixed cortical cells containing both neuron and glia were prepared from fetal rats as described previously (Kim Y C, Kim S R, Markelonis G J and Oh T H (1998) Ginsenosides Rb1 and Rg3 protect cultured rat cortical cells from glutamate-induced neurodegeneration. J. Neurosci. Res. 53: 426-432).
# The cortical cells were plated onto collagen-coated dishes at a density of 1×10^6 cells/ml. The cultured cells were grown in DMEM supplemented with 10% heat-inactivated fetal calf serum, 1 mM sodium pyruvate, 100 IU/ml pecicillin and 100 μg/ml streptomycin at 37° C. in a humidified atmosphere of 95% air/5% CO2. cultures were allowed to mature for 2 weeks before being used for experiments.
# Total extract of S. chinensis, fraction and isolated materials were dissolved in DMSO(within final culture concentration, 0.1%) and diluted with distilled water and by passing the solution through Milliporemembrane(0.22 μm, Millex-GV, USA) to make sterile state. The solution was cultured by differentiating the concentration and dosed to neuron cells.
# To culture broth of the cortical cells during being cultured, MTT(5 mg/ml) was added by 10% of the culture broth. The broth was cultured for more 3 hours. The formed formazan was dissolved by DMSO and was assayed absorption at 540 nm((Mosmann T (1983) Rapid colorimetric assay for cellular growth and survival: Application to proliferation and cytotoxicity assays. J. Immuno. Methods 65: 55-61)
# The neuroprotective activity of these two aristolactam alkaloids against glutamate-induced toxicity was initially evaluated by a timed exposure to alkaloids before or after excitotoxic challenge. Some cultures were pretreated with alkaloids for one hr before a brief exposure (30 min) to glutamate, washed and maintained in DMEM for 24 hr in the absence of alkaloids (pre-treatment) (Table 3). Also, cultures were first exposed to glutamate for 30 min, washed and maintained in DMEM for 24 hr in the presence of alkaloids (post-treatment) (Table 4).
# Cortical cells directly isolated from rat fetal were cultured for 14 days. The samples to be tested were treated at different concentrations to cultured cells. After one hour, neurotoxicity was induced by treating 100 μM of glutamate. After 24 hours, the survival cell rate were measured by MTT assay to determine neuroprotective activity of the samples.
# Control is the value for primary cultures of rat cortical cells. Control value for MTT was 1.03±0.08 optical density (OD). Glutamate-treated is the value for primary cultures of rat cortical cells exposed to glutamate for 30 min. Glutamate-treated value for MTT was 0.58±0.02 OD.
# Viability is calculated as 100×(OD of sample treated−OD of Glutamate-treated)/(OD of control−OD of Glutamate-treated).
# catalase = assay: Effect on activity of antioxidant enzyme catalase; assay type: cell-based, rat; conditions: data not shown
# SOD = assay: Effect on activity of antioxidant enzyme SOD; assay type: cell-based, rat; conditions: data not shown
# [3] = test system: glutamate-insulted rat cortical cells; conditions: previously patented neuroprotectant, comparison; cited from earlier work
# [4] = test system: peroxide content on glutamate-insulted rat cortical cells; assay: Cellular peroxide content in glutamate-injured cortical neurons; assay type: cell-based
# [5] = test system: [Ca2+]i in glutamate-insulted rat cortical cells; assay: Measurement of Ca2+ concentration in cells (Fura-2 AM); assay type: cell-based; conditions: for [Ca2+]i: pre-treatment, control 75.5, glutamate-treated 425.4
# [6] = both pre- and post-treatment paradigms
molecule,measurement,setting,value
"N=C(NCCC[C@H](N)C(=O)O)N[N+](=O)[O-] [N^ω-nitro-L-arginine, reference compound]",Nitrite,[1]; 1.0 μM,103.9 ± 3.5 nM
same,Nitrite,[1]; 10.0 μM,88.5 ± 4.1 nM
same,Nitrite,[1]; 100.0 μM,109.7 ± 1.9 nM
"COc1cc2c3c(cc4ccccc4c3c1OC)NC2=O [aristolactam BII, 10-amino-3,4-methoxy-3-hydroxy-phenanthrene-1-carboxylic acid lactam]",Nitrite,[1]; 0.1 μM,87.0 ± 0.8 nM
same,Nitrite,[1]; 1.0 μM,86.8 ± 2.2 nM
same,Nitrite,[1]; 10.0 μM,103.2 ± 1.2 nM
same,NO content in cultures treated with glutamate plus compound (in words),[1]; versus glutamate alone,increased only slightly
same,protective effect on activity of GSH-px (in words),GSH-px,no significant protective effects
same,Neuroprotection (% protection against glutamate-induced neurotoxicity),"[2]; post-treatment (right after 30 min glutamate insult), 0.1 μM",58.5 ± 5.8 %
same,Neuroprotection (% protection against glutamate-induced neurotoxicity),"[2]; post-treatment (right after 30 min glutamate insult), 1.0 μM",68.4 ± 3.5 %
same,Neuroprotection (% protection against glutamate-induced neurotoxicity),"[2]; post-treatment (right after 30 min glutamate insult), 10.0 μM",47.8 ± 2.9 %
same,Neuroprotection (% protection against glutamate-induced neurotoxicity),"[2]; pre-treatment (1 hr prior to glutamate insult), 0.1 μM",0.0 ± 7.8%
same,Neuroprotection (% protection against glutamate-induced neurotoxicity),"[2]; pre-treatment (1 hr prior to glutamate insult), 1.0 μM",0.0 ± 3.2%
same,Neuroprotection (% protection against glutamate-induced neurotoxicity),"[2]; pre-treatment (1 hr prior to glutamate insult), 10.0 μM",32.2 ± 0.8 %
same,protection from glutamate-induced neurotoxicity (in words),[2]; pre-treatment paradigm,did not significantly protect
same,neuroprotective activity (in words),[2]; throughout treatment paradigm,significant neuroprotective activity
same,Neuroprotection (% protection against glutamate-induced neurotoxicity),"[2]; throughout treatment, 0.1 μM",no effect
same,Neuroprotection (% protection against glutamate-induced neurotoxicity),"[2]; throughout treatment, 1.0 μM",60.8 ± 2.1 %
same,Neuroprotection (% protection against glutamate-induced neurotoxicity),"[2]; throughout treatment, 10.0 μM",52.2 ± 3.2 %
same,protective effect on activity of catalase (in words),catalase,no significant protective effects
same,protective effect on activity of SOD (in words),SOD,no significant protective effects
"COc1ccc(/C=C/C(=O)O)cc1 [E-p-MCA, (E)-p-methoxycinnamic acid]",protective activity by treatment paradigm (in words),[3],significant protective activity only in pre-treatment paradigm
saurolactam-3-O-(E)-p-methoxycinnamate,block of NO synthesis (in words),[1]; [6],significantly block
same,Nitrite post-treatment,[1]; 0.1 μM,143.6 ± 5.7 nM
same,Nitrite post-treatment,[1]; 1.0 μM,97.5 ± 26.3 nM
same,Nitrite post-treatment,[1]; 10.0 μM,118.1 ± 2.1 nM
same,Nitrite pre-treatment,[1]; 0.1 μM,125.0 ± 6.8 nM
same,Nitrite pre-treatment,[1]; 1.0 μM,74.8 ± 6.5 nM
same,Nitrite pre-treatment,[1]; 10.0 μM,71.4 ± 2.1 nM
same,cellular peroxide level (in words),[4],reduced
same,Neuroprotection (% protection against glutamate-induced neurotoxicity),"[2]; Table 6, pre-treatment, 0.1 μM",29.8 ± 8.2 %
same,Neuroprotection (% protection against glutamate-induced neurotoxicity),"[2]; Table 6, pre-treatment, 1.0 μM",67.2 ± 9.6 %
same,Neuroprotection (% protection against glutamate-induced neurotoxicity),"[2]; Table 6, pre-treatment, 10.0 μM",80.6 ± 9.5 %
same,Neuroprotection (% protection against glutamate-induced neurotoxicity),"[2]; Table 7, post-treatment, 0.1 μM",62.1 ± 1.8 %
same,Neuroprotection (% protection against glutamate-induced neurotoxicity),"[2]; Table 7, post-treatment, 1.0 μM",70.3 ± 3.2 %
same,Neuroprotection (% protection against glutamate-induced neurotoxicity),"[2]; Table 7, post-treatment, 10.0 μM",48.2 ± 1.5 %
same,neuroprotective activity on glutamate-induced neurotoxicity (in words),[2]; [6],significant neuroprotective activity
same,block of increase of intracellular Ca2+ induced by excess glutamate (in words),[5],successfully block
same,[Ca2+]i,[5]; 0.1 μM,233.3 ± 14.9 nM
same,[Ca2+]i,[5]; 1.0 μM,145.8 ± 26.3 nM
same,[Ca2+]i,[5]; 10.0 μM,96.1 ± 4.1 nM
